# In patent US20110028401A1, “CRIPTO BLOCKING MOLECULES AND THERAPEUTIC USES THEREOF” (CONSIGLIO NAZIONALE DELLE RICERCHE, priority 2009, published 2011):
# Tests used:
# R1 ESC = test: Dopaminergic differentiation of ESCs on PA6 stromal cells; format: cell-based, mouse
# Protocol: For more specific dopaminergic differentiation, R1 ESC were plated on a confluent monolayer of mitomycin-C treated (2 hour, 20 ug/ml, Sigma) stromal PA6 cells (Riken Cell Bank) at a density of 100 cells/cm^2 and differentiated based on the methods of Barberi et al, 2003 with the following modifications, FIG. 7(a)^27. Cells were initially cultured in serum-replacement media (Dulbecco's modified Eagle medium with 15% serum replacement, 2 mM L-glutamine and 10 uM β-mercaptoethanol, Gibco-Invitrogen) containing Noggin (300 ng/ml, R&D Systems). After 5 days the media was replenished and supplemented with Noggin plus morphogens fibroblast growth factor-8 (FGF8, 100 ng/ml) and Sonic Hedgehog (Shh, 500 ng/ml), previously shown to be important in midbrain DA neuron development. At day 8, cultures were changed into N2 media (a 1:1 mixture of F12 and MEM with 15 mM HEPES buffer, 1 mM glutamine, 6 mg/ml glucose (Sigma-Aldrich), 3 mg/ml Albumax and N2 supplement (all purchased from Invitrogen)) supplemented with FGF2 (20 ng/ml), Shh, FGF8 and Wnt5a (previously shown to be important in the differentiation of dopaminergic precursors in vitro and in vivo^25, 56. Finally at day 11, cultures were exposed to survival factors brain derived neurotrophic factor (BDNF, 30 ng/ml), glial derived neurotrophic factor (GDNF, 30 ng/ml) and ascorbic acid (AA, 100 uM). In addition, peptides (Control peptide, CP; Dimer peptide, DP or Cripto Blocking peptide, Cripto BP, 12.5 uM) were added to the cultures from day 1-11. Peptides were replenished in the media every second day.
# Hoescht counterstaining was used for visualization of all cells within the cultures. The proportion of neuron containing colonies (labeled for using the immature neuronal marker βIII-tubulin (Tuj1)) and the number of dopaminergic neurons/μm^2 colony (identified using a marker for the precursor enzyme in DA synthesis, TH) were counted. Differentiation experiments were performed in triplicate.
# The authors next examined whether DA differentiation could be promoted. To this end, the authors used a DA differentiation protocol involving co-culturing on stromal cells^27, to which additional modifications were incorporated (FIG. 7a). In brief, ESCs were plated at low density onto stromal cells (PA6) for a period of 5 days, to promote neural induction. From day 0-8, cultures were treated with noggin to enhance neuronal induction. From day 8-11, cultures where changed into neuronal (N2) media in the presence of Shh and FGF-8 (for ventral midbrain patterning) and basic FGF (to expand the pool of DA precursors), as well as Wnt5a (involved in DA neuron differentiation in vitro and in vivo^25, 43). Control peptide (CP) or Cripto BP (BP) were added to the differentiating ESCs from day 1 to day 11. […]
# Parkinsonian rats = test: Amphetamine-induced rotational behaviour of ESC-grafted Parkinsonian rats; format: in vivo, rat; details: for improvement in amphetamine-induced rotations: pre-treated ESCs + peptide infusion
# Source text: Thirty-seven adult male Sprague Dawley rats (250-350 g; from ARC, Australia) were housed and treated according to the guidelines of the Australian and Howard Florey Institute animal ethics committee (07-030). Animals received unilateral stereotaxic injections of 6-OHDA into the substantia nigra pars compacta (SNpc) to create a complete lesion of the midbrain DA neurons, as previously described^29. Lesioned animals were selected for transplantation based on their response to amphetamine induced rotational behaviour as previously described^29. Animals making greater than 6 rotations/min (lesion greater than 80%) were selected for grafting.
# Two days prior to grafting animals began cyclosporine-A immune suppression (10 mg/kg). Fourteen days post-lesioning selected animals (determined by behavioural rotations) were again anesthetized and stereotaxically injected with 1 μl of cell suspension at each of the 4 sites as previously described^29. Stereotaxic coordinates of 1st & 2nd Injection (from bregma): anterior 0.2 mm, lateral 3.0 mm, ventral 4.5 and 5.0 mm; 3rd & 4th Injection, anterior 1.0 mm, lateral 2.5 mm, ventral 4.5 and 5.0 mm; incisor bar 0 mm^57). ESCs were differentiated as outlined in FIG. 7a. In brief, ESC colonies were dissected away from the stromal feeder layer and dissociated using collagenase/dispase with agitation (700 μg/ml, Roche, for 20 min, 80 rpm). Cells were subsequently resuspended at a density of 3,000 cells/μl ready for grafting. Five rats received Sham injections (4 μl N2 media, 1 μl/site), 16 rats received a total of 12,000 ESCs (4×1 μl grafts) pre-treated with the Control peptide (of which 9 of these animals also received infusion of the Control peptide) and a further 16 rats received grafts pretreated with the Cripto blocking peptide (9 animals receiving infusion of the Cripto BP).
# The peptide infusion was performed by implantation of a cannula into the striatum (Alzet brain infusion kit) connected to a subcutaneously placed osmotic minipump (Alzet) prefilled with either CP or Cripto BP. Implantation was performed at the same time as the cell grafting. Cannula coordinates: anterior 0.5 mm, lateral 1.5 mm, ventral 5.0 mm; incisor bar 0 mm^57. The osmotic pump was capable of continuously delivering the peptide over a 3 weeks period (75 μM, 0.25 μl/hr) upon which time the animals were briefly anaesthetized with isoflurane and the pump removed through a small incision over the scapular region.
# [1] = peptide 12.5 uM day 1-11, 14 days on PA6
structure (smiles),measurement,setting,value
C[S+]([O-])CCC(N)C(=O)N[C@@H](CSCc1ccccc1)C(=O)N[C@@H](CSCc1ccccc1)C(=O)N[C@@H](CCCCNC(=O)[C@H](CSCc1ccccc1)NC(=O)[C@H](CSCc1ccccc1)NC(=O)[C@@H](N)CC[S+](C)[O-])C(=O)N[C@@H](CCCCNC(=O)[C@H](CCCCNC(=O)[C@H](CSCc1ccccc1)NC(=O)[C@H](CSCc1ccccc1)NC(=O)[C@@H](N)CC[S+](C)[O-])NC(=O)[C@H](CSCc1ccccc1)NC(=O)[C@H](CSCc1ccccc1)NC(=O)[C@@H](N)CC[S+](C)[O-])C(=O)NCC(=O)O (some centres unmarked) [Cripto BP],yield of DA neurons derived from wildtype ESCs,R1 ESC; Noggin and Wnt5a in conjunction with Cripto BP,enhanced further
same,DA neurons per TH-ir colony,R1 ESC; peptide 12.5 uM day 1-11,286 % greater than control
same,colonies immunoreactive for βIII-tubulin,R1 ESC; [1],91%
same,proportion of colonies containing TH-ir DA neurons,R1 ESC; [1],62%
same,functional improvement in rotational behaviour compared to shams,"Parkinsonian rats; 12,000 ESCs pre-treated, without infusion",significant reductions in amphetamine induced rotational behaviour as early as week 2 post-grafting
same,improvement in amphetamine-induced rotations,Parkinsonian rats,significantly improved functional recovery
same,improvement in amphetamine-induced rotations,Parkinsonian rats; mean±SD,69.6±8.4%
same,reduction in amphetamine induced rotational behaviour,"Parkinsonian rats; pre-treated ESCs without infusion, 8 weeks postgrafting, mean±SD",66.2±8.4%
